This data set can be described thus: Neurotoxicity against human neuroblastoma SH-SY5Y cells using MTT dye conversion assay. For orientation: Tetrazolium assays rely on reduction of a dye to a coloured formazan, in cell work by metabolically active cells.

Broadly, the CC50 is the concentration that lowers cell viability or growth by half. Lower therefore signals harm at low concentration. The molecule `CC1NCCc2c(O)cccc21` (stereo not drawn) yielded a cytotoxic concentration (CC50) of 3380 µM.
For `COc1cc2c(cc1OC)C(C)NCC2` (stereo not drawn), the cytotoxic concentration (CC50) is 2730 µM.
Regarding `CC1NCCc2ccc(O)cc21` (stereo not drawn), the CC50 came to 4150 µM.
In turn, `CC1NCCc2cc(O)c(O)cc21` (stereo not drawn) showed a CC50 of 34 µM. Against the preceding molecule, the CC50 is about 120-fold lower.
Turning to `COc1ccc2c(c1)CCNC2C` (stereo not drawn), the CC50 came to 2790 µM.
Then `CC1NCCc2cc(O)ccc21` (stereo not drawn), with 3630 µM; and `COc1ccc2c(c1)C(C)NCC2` (stereo not drawn), with 1390 µM.
On to `COc1cccc2c1CCNC2C` (stereo not drawn), for which the CC50 amounted to 2450 µM.

The values above are taken from ChEMBL document CHEMBL1136177, “Neuroprotective or neurotoxic activity of 1-methyl-1,2,3,4-tetrahydroisoquinoline and related compounds” (Bioorg Med Chem Lett, 2003).
